Key:
[1] = Body weight of mice in hind limb ischemia studies; assay type: in vivo, Balb/c mice; conditions: Example 1; 500 μg/kg SC daily; throughout the study (49 days)
Description: Body weight of animals was measured before the surgery and once weekly thereafter.
The model and procedures used for this example is the same as for those in Examples 1 and 2, unless otherwise specified.

[2] = test system: Transient middle cerebral artery occlusion (tMCAO); test: Body swing test after tMCAO stroke; assay type: in vivo, rats; conditions: 50 μg/kg by Alzet pump
Description: (§1) For the purposes of this example, Transient middle cerebral artery occlusion (tMCAO) procedure Day is defined as “Day 1” in this study. On the day of surgery anesthesia were induced with 4% isoflurane in a mixture of 70% N2O and 30% O2 and maintained with 1.5-2% isoflurane.
(§2) The tMCAO procedures were performed according to the method described R. Schmid-Elsaesser et al. Briefly, the right CCA (Common Carotid Artery) was exposed through a midline neck incision and carefully dissected free from surrounding nerves and fascia—from its bifurcation to the base of the skull. The occipital artery branches of the ECA (External Carotid Artery) were then isolated, and these branches were dissected and coagulated. The ECA was dissected further distally and coagulated along with the terminal lingual and maxillary artery branches, which was then divided. The ICA (Internal Carotid Artery) was isolated and carefully separated from the adjacent vagus nerve, and the pterygopalatine artery was ligated close to its origin with a 5-0 nylon suture (SMI, Belgium). Next, a 4-0 silk suture was tied loosely around the mobilized ECA stump, and a 4 cm length of 4-0 monofilament nylon suture (the tip of the suture was blunted by using a flame, and the suture was coated with polylysine, prior to insertion) was inserted through the proximal ECA into the ICA and thence into the circle of Willis, effectively occluding the MCA. The surgical wound was closed and the animals were returned to their cages to recover from anesthesia. One hour and a half after occlusion rats were re-anesthetized, the monofilament was withdrawn to allow reperfusion, the surgical wound was closed and rats were returned to their cages.
Animals were subjected to a modified Modified Neurological Rating Scale (mNRS) at 24 hours post reperfusion. Only animals with an overall score of ≧10 were included in this study. Animals were allocated into the test groups, according to the mNRS results on day 2, in order to have similar distribution of rats performance between groups. Starting on day 2, 24 hours post-surgery, animals in groups 4, 5 and 7 were implanted subcutaneously with an osmotic Alzet pump and treated with either 500 μg/kg TXA127, 500 μg/kg PanCyte, or 50 μg/kg Linear PanCyte. Animals in groups 2, 3 and 6 received 500 μg/kg or 1,000 μg/kg TXA127 or 500 μg/kg PanCyte, administered subcutaneously via daily injection. Animals in group 1 were treated with a daily subcutaneous injection of a PBS (vehicle).
Each rat was held approximately one inch from the base of its tail. It was then elevated to an inch above a surface of a table. The rat was held in the vertical axis, defined as no more than 10° to either the left or the right side. A swing was recorded whenever the rat moves its head out of the vertical axis to either side. Before attempting another swing, the rat must return to the vertical position for the next swing to be counted. Twenty (20) total swings were counted. A normal rat typically has an equal number of swings to either side. Following focal ischemia, the rat tends to swing to the contralateral side (left side in this case). Body swing scores are expressed as a percentage of […] over total swings.

[3] = test system: Transient middle cerebral artery occlusion (tMCAO); test: Forelimb placement test after tMCAO stroke; assay type: in vivo, rats; conditions: 50 μg/kg by Alzet pump; particularly on Days 21 and 35
Description: as §1
The tMCAO procedures were performed according to the method described R. Schmid-Elsaesser et al. Briefly, the right CCA (Common Carotid Artery) was exposed through a midline neck incision and carefully dissected free from surrounding nerves and fascia—from its bifurcation to the base of the skull. The occipital artery branches of the ECA (External Carotid Artery) were then isolated, and these branches were dissected and coagulated. The ECA was dissected further distally and coagulated along with the terminal lingual and maxillary artery branches, which was then divided. The ICA (Internal Carotid Artery) was isolated and carefully separated from the adjacent vagus nerve, and the pterygopalatine artery was ligated close to its origin with a 5-0 nylon suture (SMI, Belgium). […]
For the forelimb-placing test, the rat was held close to a tabletop and the rat's ability to place the forelimb on the tabletop in response to whisker, visual, tactile, or proprioceptive stimulation was scored (0=normal, 12=maximally impaired). […]

[4] = test system: Transient middle cerebral artery occlusion (tMCAO); test: tMCAO stroke model, overall comparison of results; assay type: in vivo, rats; conditions: Linear PanCyte dose at least ten times lower than PanCyte
Text: Without wishing to be held to a particular theory, it is possible that angiotensin-(1-7) peptides or functional equivalents, analogs or derivatives, and/or angiotensin-(1-7) receptor agonists such as TXA127, PanCyte and Linear PanCyte act to stimulate blood flow and tissue repair through angiogenesis. Such a mode of action would be extremely beneficial in a critical limb ischemia scenario since these conditions have deprivation of blood supply as a major source of pathology.
as §1
The tMCAO procedures were performed according to the method described R. Schmid-Elsaesser et al. Briefly, the right CCA (Common Carotid Artery) was exposed through a midline neck incision and carefully dissected free from surrounding nerves and fascia—from its bifurcation to the base of the skull. The occipital artery branches of the ECA (External Carotid Artery) were then isolated, and these branches were dissected and coagulated. The ECA was dissected further distally and coagulated along with the terminal lingual and maxillary artery branches, which was then divided. […]

[5] = test system: Transient middle cerebral artery occlusion (tMCAO); test: Stepping test (forelimb akinesia) after tMCAO stroke; assay type: in vivo, rats
Description: as §1
as §2, with “One hour and a half after occlusion rats were re-anesthetized, the monofilament was withdrawn to allow reperfusion, the surgical wound was closed and rats were returned to their cages.” left out
Animals were tested for forelimb akinesia in a stepping test (ST). The animal was held with its hind limbs fixed with one hand and the forelimb not to be monitored with the other, while the unrestrained fore-paw touches the table. The number of adjusting steps are counted while the animal is moved sideways along the table surface (85 cm in approximately five seconds), in the forehand & backhand direction for both forelimbs. […]

Compound	body weight vs vehicle [1]	body swing performance ([2]; by Day 21)	body swing performance vs vehicle ([2]; by Day 28)	forelimb placement performance compared with other groups [3]	results in stroke model compared with PanCyte [4]	stepping test results compared with TXA127 or PanCyte ([5]; 50 μg/kg by Alzet pump)	stepping test performance vs vehicle ([5]; all experimental conditions (Table 22), by Day 28 post-surgery)
CC[C@H](C)[C@H](NC(=O)[C@H](Cc1ccc(O)cc1)NC(=O)[C@@H](NC(=O)[C@H](CCCNC(=N)N)NC(=O)[C@@H](N)CC(=O)O)C(C)C)C(=O)N[C@@H](Cc1c[nH]cn1)C(=O)N1CCC[C@H]1C(=O)O [TXA127, Asp^1-Arg^2-Val^3-Tyr^4-Ile^5-His^6-Pro^7 (SEQ ID NO: 1)]	no statistically significant differences						
Asp^1-Arg^2-Val^3-Ser^4-Ile^5-His^6-Cys^7 (SEQ ID NO:5) (DRVSIHC) [Linear PanCyte]		showed improvement	significant improvement in performance	best performance	at least as impressive as PanCyte and in many cases even more impressive results	substantially equivalent to ten times as much TXA127 or PanCyte	significantly improved the performance
